The values below come from US20260337208A1, “HETEROCYCLIC DERIVATIVES AS JANUS KINASE INHIBITORS” (CHIESI FARMACEUTICI S.P.A., priority 2022, published 2026).

Test [1] has as its system pSTAT6 in BEAS-2B human cell line. The experiment in a line: Inhibition of IL-13 induced pSTAT6 in BEAS. Format: cell-based. The note with it: for IC50: Homo sapiens, BEAS-2B, 0.5 h, IL-13 trigger, 30 min, parent compound; for Fold difference parent vs predicted acid metabolite: ratio=IC50 predicted acid metabolite/IC50 ester. The method, then:
BEAS-2B human cell line was seeded (100.000 cells/well) and incubated for 48 h at 37° C., 5% CO2, 95% humidity. Compounds were added and incubated 30 min followed by IL-13 as trigger. After 30 min incubation, cells were lysed and pSTAT6 determined by Fastscan phospho-stat6 (Tyr641) sandwich ELISA kit (cell signaling). Inhibitors were tested at 11 consecutive 5-fold dilutions starting from 10 μM (10 μM-[…]) in duplicate. Calculation of IC50 data, curves and QC analysis were made using Excel tools and GraphPadPrism software. QC criteria parameters: Z′≥0.35, Hill Slope range 0.5 to 5, S:B>2.

Test [2] deals with T1, JAK3 (Homo sapiens, UniProt P52333).
T1 sequence (P52333 1-1124): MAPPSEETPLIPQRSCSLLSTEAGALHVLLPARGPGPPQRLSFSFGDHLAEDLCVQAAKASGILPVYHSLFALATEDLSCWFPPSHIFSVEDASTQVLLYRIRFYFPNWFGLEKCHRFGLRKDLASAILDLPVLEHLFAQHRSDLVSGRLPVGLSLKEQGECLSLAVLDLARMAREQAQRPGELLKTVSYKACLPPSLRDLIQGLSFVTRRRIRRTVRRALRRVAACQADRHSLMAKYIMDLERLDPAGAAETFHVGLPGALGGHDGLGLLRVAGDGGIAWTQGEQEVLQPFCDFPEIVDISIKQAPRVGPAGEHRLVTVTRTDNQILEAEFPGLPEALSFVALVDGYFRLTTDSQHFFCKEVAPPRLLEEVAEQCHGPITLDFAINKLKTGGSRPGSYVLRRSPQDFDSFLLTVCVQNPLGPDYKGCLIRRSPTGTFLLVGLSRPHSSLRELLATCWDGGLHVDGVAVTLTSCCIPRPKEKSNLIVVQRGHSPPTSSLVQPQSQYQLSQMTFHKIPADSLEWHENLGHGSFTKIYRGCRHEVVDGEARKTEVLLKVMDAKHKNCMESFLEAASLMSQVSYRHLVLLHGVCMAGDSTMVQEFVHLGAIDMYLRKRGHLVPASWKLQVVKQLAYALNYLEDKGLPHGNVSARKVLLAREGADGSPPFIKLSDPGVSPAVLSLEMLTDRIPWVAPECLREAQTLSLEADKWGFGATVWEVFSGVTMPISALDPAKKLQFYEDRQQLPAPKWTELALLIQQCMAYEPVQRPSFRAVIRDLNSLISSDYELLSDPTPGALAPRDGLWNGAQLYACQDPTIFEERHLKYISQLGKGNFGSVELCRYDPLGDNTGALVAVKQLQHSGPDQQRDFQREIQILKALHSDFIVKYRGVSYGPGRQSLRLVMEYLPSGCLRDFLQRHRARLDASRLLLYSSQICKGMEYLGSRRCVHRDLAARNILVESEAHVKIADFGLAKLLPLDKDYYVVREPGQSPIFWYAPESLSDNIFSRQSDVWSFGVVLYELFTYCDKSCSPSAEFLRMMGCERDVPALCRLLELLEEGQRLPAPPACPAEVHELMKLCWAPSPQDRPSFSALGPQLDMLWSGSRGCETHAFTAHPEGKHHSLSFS
The experiment in a line: Biochemical potency on JAK3, TR-FRET (LANCE Ultra kinase assay). The note with it: ATP corresponding to Km; cell-free; read-out: JAK3 inhibitory activity (pIC50) (converted). The method, then: (§1) The objective of this study was to assess the capability of compounds to inhibit all 4 JAK isoforms activity in a cell-free environment. Assay for JAK 1, JAK 2, JAK 3 and TYK2 were performed by Time-resolved fluorescence resonance energy transfer (TR-FRET) technology. It consists in the interaction of two labelled binding partners detected by the energy transfer from an excited donor to an acceptor dye and measurement of light emission by the acceptor dye. LANCE Ultra kinase assay was used. In presence of JAK 1, JAK 2, JAK 3 and TYK2 kinases and ATP (corresponding to Km), the ULight peptide substrate (LANCE Ulight-JAK-1 (Tyr1023) Peptide, Perkin Elmer, TRF0121) is phosphorylated. It is then captured by Eu-anti-phospho-substrate antibody (LANCE Eu-W1024 Anti-phosphotyrosine (PT66), Perkin Elmer, AD0069), which bring the Eu-chelate donor and ULight acceptor dyes into close proximity. Upon excitation at 320 nm, the Eu-chelate transfers its energy to the ULight dye, resulting in a fluorescent light emission at 665 nm.
(§2) Serial dilutions of compounds in pure DMSO are prepared from 10 mM DMSO stock solutions. Compounds were tested in 384-well plate for 11 consecutive 5-fold dilutions starting from 20 μM highest concentration (20 μM-[…]). 200 nL of compound were transferred from mother plate to test plate by using Mosquito (TTP labtech). Assay was performed in 384-well Perkin Elmer test plate in 20 μL assay volume (kinase reaction) and 40 μL total volume (stopping reagent and antibody detection reagents). In 10 μL of substrate solution (peptide+ATP) 30/50/20/10 nM of peptide and 20/0.7/0.2/12 μM of ATP were added for JAK 1, JAK 2, JAK 3 and TYK2 respectively. 10 μL of enzyme solution was added to kinase reaction at these concentrations: 0.15/0.083/0.025/0.144 ng/μL of JAK 1, JAK 2, JAK 3 and TYK2 respectively. After shaking and 1.5 h of incubation at r.t., 20 μL of Stop (10 μL EDTA) and Detection mixture (10 μL Europium-anti-phospho antibody, final: 0.5 nM) were added. Reading was performed after 1 h of incubation on a En Vision 2104 reader (Perkin Elmer).
(§3) Calculation of IC50 data, curves and QC analysis was performed by using Excel tool and GraphPadPrism software, v9. Briefly, individual concentration-effect curves are generated by plotting the logarithm of the tested concentration of tested compounds (X) vs. corresponding percent inhibition values (Y) using least squares (ordinary) fit. Best fit IC50 values are calculated using Log (inhibitor) vs. normalized response—Variable slope equation, where Y=100/(1+10^((LogIC50−X)*HillSlope)). QC criteria parameters (Z′, S:B, R2, HillSlope) were checked for every IC50 curve. Calculation of IC50 data, curves and QC analysis were made using Excel tools and GraphPadPrism software. QC criteria parameters: Z′≥0.5, Hill Slope range 0.5 to 5, S:B>2.
(In general: TR-FRET usually uses a lanthanide donor and a delayed reading to cut background.)

For test [3], the target named is JAK2 (Homo sapiens, UniProt O60674). The experiment in a line: Biochemical potency on JAK2, TR-FRET (LANCE Ultra kinase assay). The note with it: ATP corresponding to Km; cell-free; read-out: JAK2 inhibitory activity (pIC50) (converted). The method, then: as §1, §2, §3
Chain of JAK2 (O60674 whole entry): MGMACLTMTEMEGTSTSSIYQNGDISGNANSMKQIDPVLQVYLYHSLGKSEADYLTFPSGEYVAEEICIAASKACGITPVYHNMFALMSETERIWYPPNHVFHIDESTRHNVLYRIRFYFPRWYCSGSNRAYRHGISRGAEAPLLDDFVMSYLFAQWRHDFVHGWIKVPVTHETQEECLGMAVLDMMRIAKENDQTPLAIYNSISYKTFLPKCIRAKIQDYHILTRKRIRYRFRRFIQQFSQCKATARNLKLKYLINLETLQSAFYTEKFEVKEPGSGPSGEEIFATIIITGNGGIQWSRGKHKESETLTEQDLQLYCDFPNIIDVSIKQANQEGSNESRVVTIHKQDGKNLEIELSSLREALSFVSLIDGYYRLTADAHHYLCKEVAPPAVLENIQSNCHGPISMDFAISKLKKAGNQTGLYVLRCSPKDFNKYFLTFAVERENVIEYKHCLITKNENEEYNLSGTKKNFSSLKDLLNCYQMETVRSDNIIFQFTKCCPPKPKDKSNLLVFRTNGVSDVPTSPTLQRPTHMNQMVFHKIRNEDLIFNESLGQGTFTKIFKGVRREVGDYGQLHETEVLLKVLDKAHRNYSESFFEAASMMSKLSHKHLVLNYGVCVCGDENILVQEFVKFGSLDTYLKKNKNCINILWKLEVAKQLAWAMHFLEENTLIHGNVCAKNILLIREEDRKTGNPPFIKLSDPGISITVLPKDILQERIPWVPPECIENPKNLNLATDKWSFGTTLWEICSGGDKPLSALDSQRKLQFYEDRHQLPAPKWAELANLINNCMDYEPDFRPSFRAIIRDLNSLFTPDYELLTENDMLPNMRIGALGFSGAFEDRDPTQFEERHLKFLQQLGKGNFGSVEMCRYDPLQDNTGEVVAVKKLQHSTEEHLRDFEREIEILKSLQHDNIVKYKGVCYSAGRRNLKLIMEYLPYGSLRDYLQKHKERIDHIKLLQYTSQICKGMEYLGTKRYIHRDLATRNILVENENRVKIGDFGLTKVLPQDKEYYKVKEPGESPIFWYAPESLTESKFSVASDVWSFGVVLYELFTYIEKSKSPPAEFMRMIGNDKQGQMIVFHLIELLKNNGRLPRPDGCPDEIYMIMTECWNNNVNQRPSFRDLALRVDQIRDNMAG
Test [4] concerns the target TYK2 (Homo sapiens, UniProt P29597). The experiment in a line: Biochemical potency on Tyk2, TR-FRET (LANCE Ultra kinase assay). The following applies: ATP corresponding to Km; cell-free; read-out: TYK2 inhibitory activity (pIC50) (converted). The method, then: as §1, §2, §3
Test [5] has as its target JAK1 (Homo sapiens, UniProt P23458). The experiment in a line: Biochemical potency on JAK1, TR-FRET (LANCE Ultra kinase assay). The following applies: ATP corresponding to Km; cell-free; read-out: JAK1 inhibitory activity (pIC50) (converted). The method, then:
as §1, §2, §3

Chain of JAK1 (P23458 whole entry): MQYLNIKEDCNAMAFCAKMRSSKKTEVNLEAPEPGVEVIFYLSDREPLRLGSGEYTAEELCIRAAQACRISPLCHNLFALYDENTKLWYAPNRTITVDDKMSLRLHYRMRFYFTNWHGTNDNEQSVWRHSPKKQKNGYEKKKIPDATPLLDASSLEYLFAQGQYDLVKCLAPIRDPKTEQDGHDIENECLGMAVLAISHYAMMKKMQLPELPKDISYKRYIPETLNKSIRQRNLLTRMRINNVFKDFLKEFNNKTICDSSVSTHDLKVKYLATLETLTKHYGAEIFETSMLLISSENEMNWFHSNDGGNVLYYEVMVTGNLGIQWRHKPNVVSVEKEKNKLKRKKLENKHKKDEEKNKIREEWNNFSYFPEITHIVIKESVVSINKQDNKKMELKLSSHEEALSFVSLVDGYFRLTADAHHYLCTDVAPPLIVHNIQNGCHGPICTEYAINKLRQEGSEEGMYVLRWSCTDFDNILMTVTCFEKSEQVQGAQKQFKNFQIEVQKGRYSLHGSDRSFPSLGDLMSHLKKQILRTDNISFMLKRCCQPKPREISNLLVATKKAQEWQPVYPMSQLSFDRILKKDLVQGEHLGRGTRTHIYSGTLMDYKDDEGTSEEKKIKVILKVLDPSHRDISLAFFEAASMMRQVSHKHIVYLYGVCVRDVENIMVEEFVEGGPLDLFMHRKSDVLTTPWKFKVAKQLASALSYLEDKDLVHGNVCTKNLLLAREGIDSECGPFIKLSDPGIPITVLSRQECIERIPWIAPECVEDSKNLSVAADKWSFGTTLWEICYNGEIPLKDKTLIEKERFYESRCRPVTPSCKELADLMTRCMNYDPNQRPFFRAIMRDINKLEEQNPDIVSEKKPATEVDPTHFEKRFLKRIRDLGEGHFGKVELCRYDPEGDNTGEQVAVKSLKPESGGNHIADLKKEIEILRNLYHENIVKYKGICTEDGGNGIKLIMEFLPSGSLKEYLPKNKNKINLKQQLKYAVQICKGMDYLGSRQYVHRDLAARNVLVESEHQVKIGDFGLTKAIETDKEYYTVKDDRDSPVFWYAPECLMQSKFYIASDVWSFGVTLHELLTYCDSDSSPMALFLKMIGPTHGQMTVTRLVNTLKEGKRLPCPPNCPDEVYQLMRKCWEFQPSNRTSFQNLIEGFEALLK
Chain of TYK2 (P29597 whole entry): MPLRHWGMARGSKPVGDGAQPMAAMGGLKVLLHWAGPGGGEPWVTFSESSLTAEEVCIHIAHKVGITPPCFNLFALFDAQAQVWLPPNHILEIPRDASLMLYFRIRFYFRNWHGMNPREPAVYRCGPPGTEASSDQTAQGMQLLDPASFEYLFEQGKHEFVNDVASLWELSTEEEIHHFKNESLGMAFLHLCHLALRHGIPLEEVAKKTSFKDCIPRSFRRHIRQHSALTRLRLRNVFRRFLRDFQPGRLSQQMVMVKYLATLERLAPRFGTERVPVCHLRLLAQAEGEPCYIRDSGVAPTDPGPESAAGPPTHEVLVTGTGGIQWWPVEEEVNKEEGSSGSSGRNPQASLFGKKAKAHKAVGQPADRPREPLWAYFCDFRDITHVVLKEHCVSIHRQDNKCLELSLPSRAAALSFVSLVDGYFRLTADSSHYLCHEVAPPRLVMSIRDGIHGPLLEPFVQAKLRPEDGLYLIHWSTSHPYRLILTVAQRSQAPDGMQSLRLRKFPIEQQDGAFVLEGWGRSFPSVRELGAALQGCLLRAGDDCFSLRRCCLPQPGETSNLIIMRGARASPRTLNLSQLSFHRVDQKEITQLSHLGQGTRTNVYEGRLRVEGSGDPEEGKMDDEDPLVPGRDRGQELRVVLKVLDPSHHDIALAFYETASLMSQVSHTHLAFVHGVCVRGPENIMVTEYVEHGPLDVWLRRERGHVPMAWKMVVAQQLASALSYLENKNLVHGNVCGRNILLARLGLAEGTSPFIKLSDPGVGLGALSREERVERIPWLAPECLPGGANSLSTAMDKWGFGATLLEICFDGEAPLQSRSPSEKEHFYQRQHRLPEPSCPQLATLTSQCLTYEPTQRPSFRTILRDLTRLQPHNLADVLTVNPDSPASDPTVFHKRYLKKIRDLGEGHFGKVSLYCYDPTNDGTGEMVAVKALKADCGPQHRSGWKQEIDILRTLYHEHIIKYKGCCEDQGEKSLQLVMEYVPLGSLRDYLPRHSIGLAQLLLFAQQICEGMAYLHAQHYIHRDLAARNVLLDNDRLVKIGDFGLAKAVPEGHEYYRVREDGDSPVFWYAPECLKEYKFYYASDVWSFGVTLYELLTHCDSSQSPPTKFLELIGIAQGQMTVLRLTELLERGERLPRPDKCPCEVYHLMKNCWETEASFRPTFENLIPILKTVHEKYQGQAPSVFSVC

With `COc1cc2c(cc1-n1nc(C(=O)NCCN3CCC(C(=O)OCC4CN(C)CCO4)CC3)c3cnc(-c4cnn5cccnc45)cc31)OCCN2` (stereo not drawn) [Example 19, (4-methylmorpholin-2-yl)methyl 1-(2-(1-(6-methoxy-3,4-dihydro-2H-benzo[b][1,4]oxazin-7-yl)-6-(pyrazolo[1,5-a]pyrimidin-3-yl)-1H-pyrazolo[4,3-c]pyridine-3-carboxamido)ethyl)piperidine-4-carboxylate], the IC50 is not above 5.01 nM in test [1]; not above 5.01 nM in test [2]; not above 5.01 nM in test [3]; 5.01 to 50.1 nM in test [4]; not above 5.01 nM in test [5]. Besides, in test [1], the “Fold difference parent vs predicted acid metabolite” value is “kkkk (ratio≥200)”.

On to `COc1cc2c(cc1-n1nc(C(=O)NCCN3CCC(C(=O)O[C@H]4CCN(C)C4)CC3)c3cnc(-c4cnn5cccnc45)cc31)OCCN2` [Example 24, (S)-1-methylpyrrolidin-3-yl 1-(2-(1-(6-methoxy-3,4-dihydro-2H-benzo[b][1,4]oxazin-7-yl)-6-(pyrazolo[1,5-a]pyrimidin-3-yl)-1H-pyrazolo[4,3-c]pyridine-3-carboxamido)ethyl)piperidine-4-carboxylate], for which the IC50 in test [1] was 5.01 to 50.1 nM; in test [2] it was not above 5.01 nM; in test [3], not above 5.01 nM; in test [4], 5.01 to 50.1 nM; in test [5] it was not above 5.01 nM. For the same molecule, the “Fold difference parent vs predicted acid metabolite” value in test [1] is listed as “kkk (200>ratio≥100)”.

For `COc1cc2c(cc1-n1nc(C(=O)NCCN3CCC(C(=O)O[C@@H]4CCN(C)C4)CC3)c3cnc(-c4cnn5cccnc45)cc31)OCCN2` [Example 23, (R)-1-methylpyrrolidin-3-yl 1-(2-(1-(6-methoxy-3,4-dihydro-2H-benzo[b][1,4]oxazin-7-yl)-6-(pyrazolo[1,5-a]pyrimidin-3-yl)-1H-pyrazolo[4,3-c]pyridine-3-carboxamido)ethyl)piperidine-4-carboxylate], the IC50 is 5.01 to 50.1 nM in test [1]; not above 5.01 nM in test [2]; not above 5.01 nM in test [3]; 5.01 to 50.1 nM in test [4]; not above 5.01 nM in test [5]. Moreover, in test [1], the “Fold difference parent vs predicted acid metabolite” value was “kkk (200>ratio≥100)”.

As to `COc1cc2c(cc1-n1nc(C(=O)NCCN3CCC(C(=O)OCC(C)(C)CO)CC3)c3cnc(-c4cnn5cccnc45)cc31)OCCN2` [Example 15, 3-hydroxy-2,2-dimethylpropyl 1-(2-(1-(6-methoxy-3,4-dihydro-2H-benzo[b][1,4]oxazin-7-yl)-6-(pyrazolo[1,5-a]pyrimidin-3-yl)-1H-pyrazolo[4,3-c]pyridine-3-carboxamido)ethyl)piperidine-4-carboxylate], the IC50 in test [1] was not above 5.01 nM; in test [2] it was not above 5.01 nM; in test [3], not above 5.01 nM; in test [4] it was 5.01 to 50.1 nM; in test [5] it was not above 5.01 nM. The “Fold difference parent vs predicted acid metabolite” value in test [1] was “kkkk (ratio≥200)”.

With `COc1cc2c(cc1-n1nc(C(=O)NCCN3CCC(C(=O)OC4CC4)CC3)c3cnc(-c4cnn5cccnc45)cc31)OCCN2` [Example 11, cyclopropyl 1-(2-(1-(6-methoxy-3,4-dihydro-2H-benzo[b][1,4]oxazin-7-yl)-6-(pyrazolo[1,5-a]pyrimidin-3-yl)-1H-pyrazolo[4,3-c]pyridine-3-carboxamido)ethyl)piperidine-4-carboxylate], the IC50 in test [1] was not above 5.01 nM; in test [2], not above 5.01 nM; in test [3] it was not above 5.01 nM; in test [4], 5.01 to 50.1 nM; in test [5], not above 5.01 nM. Also, the “Fold difference parent vs predicted acid metabolite” value in test [1] was “kkkk (ratio≥200)”.

`CCOC(=O)C1CCN(CCOC(=O)Nc2nn(-c3cc4c(cc3OC)NCCO4)c3cc(-c4cnn5cccnc45)ncc23)CC1` [Example 41, ethyl 1-(2-(((1-(6-methoxy-3,4-dihydro-2H-benzo[b][1,4]oxazin-7-yl)-6-(pyrazolo[1,5-a]pyrimidin-3-yl)-1H-pyrazolo[4,3-c]pyridin-3-yl)carbamoyl)oxy)ethyl)piperidine-4-carboxylate]: the IC50 in test [1] is not above 5.01 nM; in test [2], not above 5.01 nM; in test [3] it was not above 5.01 nM; in test [4], 5.01 to 50.1 nM; in test [5] it was not above 5.01 nM. In addition, in test [1], the “Fold difference parent vs predicted acid metabolite” value is given as “kkk (200>ratio≥100)”.

On to `COc1cc2c(cc1-n1nc(C(=O)NCCN3CCC(C(=O)OC4CCN(C)CC4)CC3)c3cnc(-c4cnn5cccnc45)cc31)OCCN2` [Example 42, 1-methylpiperidin-4-yl 1-(2-(1-(6-methoxy-3,4-dihydro-2H-benzo[b][1,4]oxazin-7-yl)-6-(pyrazolo[1,5-a]pyrimidin-3-yl)-1H-pyrazolo[4,3-c]pyridine-3-carboxamido)ethyl)piperidine-4-carboxylate], for which the IC50 was 5.01 to 50.1 nM in test [1]; not above 5.01 nM in test [2]; not above 5.01 nM in test [3]; 5.01 to 50.1 nM in test [4]; not above 5.01 nM in test [5]. Besides, in test [1], the “Fold difference parent vs predicted acid metabolite” value was “kkk (200>ratio≥100)”.
